Measurements from patent publication US20230078511A1, “METHODS OF USING MOMELOTINIB TO TREAT JOINT INFLAMMATION” (Sierra Oncology, Inc., priority 2020, published 2023).

Tests used:
[1] = target: T1, Activin Receptor Type 1 (ACVR1) (Homo sapiens, UniProt Q04771); settings: background statement; cited from earlier work
T1 sequence (Q04771 21-509): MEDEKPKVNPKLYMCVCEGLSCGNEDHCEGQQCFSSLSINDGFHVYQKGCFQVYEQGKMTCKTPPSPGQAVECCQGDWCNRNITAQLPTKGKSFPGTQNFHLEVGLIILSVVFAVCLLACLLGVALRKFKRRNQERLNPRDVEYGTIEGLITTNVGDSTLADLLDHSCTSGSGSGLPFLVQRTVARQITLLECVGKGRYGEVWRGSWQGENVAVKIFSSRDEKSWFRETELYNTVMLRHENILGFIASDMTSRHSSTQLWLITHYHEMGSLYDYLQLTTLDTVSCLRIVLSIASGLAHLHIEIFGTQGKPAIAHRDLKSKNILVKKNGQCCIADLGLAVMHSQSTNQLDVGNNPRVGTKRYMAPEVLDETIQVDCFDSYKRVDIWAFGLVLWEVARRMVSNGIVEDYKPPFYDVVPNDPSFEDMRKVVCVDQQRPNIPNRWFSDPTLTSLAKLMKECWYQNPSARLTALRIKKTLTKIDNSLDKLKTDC

rat model = settings: background statement; cited from earlier work
CAIA BALB/C mice = experiment: CAIA murine rheumatoid arthritis model in BALB/C mice (Example 4); assay type: in vivo; settings: for mean rear paw rheumatoid arthritis score / mean rear paw thickness / mean total animal rheumatoid arthritis score: beginning on day 6, vs vehicle, MMB 50 mg/kg daily or 30 mg/kg twice daily oral, etanercept 10 mg/kg daily IP
Description: BALB/C mice were immunized with 2 mg anti-collagen II antibodies administered intraperitoneally (IP) on day 0 followed by intraperitoneal injection of 100 µg of lipopolysaccharide (LPS) on day 3. Beginning at RA induction, mice were treated orally for the entirety of the study either once daily vehicle, MMB (50 mg/kg), twice daily with MMB (30 mg/kg), or daily intraperitoneally, etanercept (ETA) (10 mg/kg). Consecutive assessment of rheumatoid arthritis was performed by animal and rear paw scoring, and rear paw thickness measurements.

PG-PS-immunized rats = experiment: PG-PS induced rat model of chronic arthritis (Example 1); assay type: in vivo, Lewis rats
Description: Six-week old female Lewis rats are immunized with 15 mg/kg Streptococcal Peptidoglycan-Polysaccharide (PG-PS) administered intraperitoneally (IP). Treatments with anti-inflammatory drugs of interest are commenced two weeks later and continue for 7 days (short-term) to 21 days (long-term). Disease progression is monitored as described below (see Joint Pathology, Clinical Scoring and Bio-Imaging). Blood samples are collected once weekly and processed as described below. At the conclusion of experiments, blood, serum, and organ samples are collected and processed as described herein.
Spleen and lymph node cells are isolated by mechanical pressing of the organ through a 100 µm cell strainer (Corning) in PBS. For isolation of rat synovial infiltrates, hind limbs are freed of skin, bones, and major tendons. The remaining tissue is minced and digested with 0.16 U Liberase TM, 10 µg/mL DNase I, and 60 U hyaluronidase I in RPMI at 37° C. for 1 hour. Blood is collected into heparinized tubes and used directly for blood count determination. For immunophenotyping of blood leukocytes, blood samples are depleted from red blood cells by lysis with ACK buffer (150 mM NH4Cl, 10 mM KHCO3, 0.1 mM EDTA).
Flow cytometry staining is performed as described in Parajuli et al., Int. J. Cancer 126:896-908, 2010, which is hereby incorporated by reference in its entirety. Measurements are performed with a Cytoflex S device (Beckman Coulter) and FACS Symphony (Beckton Dickinson), enabling detection of 13 and 52 fluorescence parameters, respectively, as well as automated absolute cell count determination.
For intracellular cytokine/transcription factor staining, rat and murine T cells are re-stimulated for 4 hours with phorbol 12,13-dibutyrate (PDBu) and ionomycin (50 ng/mL and 500 ng/mL, respectively) in the presence of Golgi Stop (BD Bioscience). In sum, five multicolor antibody panels per species (rat, mouse) are established (blood leukocytes, organ leukocytes, intracellular staining for Th cell subtypes, blood reticulocytes, bone marrow erythropoiesis). Data analysis is performed using FlowJo Software.
(§1) Regular monitoring of arthritis progression in all animal models is accomplished by measuring hind limb ankle joint diameters with a Vernier’s caliper (volume = D × d^2Π/6, D and d are ankle diameters measured in perpendicular axes, D > d). In murine arthritis models, animals are additionally clinically scored with a system assessing swelling and mobility of each animal’s limb, as described in Inglis et al., Arthritis Res. Ther. 8:R113, 2007, which is hereby incorporated by reference in its entirety. Each paw of an experimental animal is assessed separately as follows: 0 - normal, 1 - slight swelling or erythrema, 2 - pronounced swelling, 3 - joint rigidity. The paw scores for each animal are summed giving a maximum of 12 points per mouse. Scoring is performed by a rater blinded to the group assignment.
A rat model of chronic arthritis (PG-PS induced) was used to assess the efficacy of the dual JAK1/2 and ACVR1 inhibitor momelotinib (MMB) in vivo. Two weeks following arthritis induction by immunization with PG-PS, rats were treated with daily oral doses of MMB (5, 10, and 25 mg/kg) or vehicle for 3 weeks.
Consecutive assessment of arthritis was performed by joint thickness measurements and paw scoring. Following 3 weeks of treatment, synovial immune cell infiltration and T cell subset differentiation were quantified by multi-color flow cytometry. Cytokine gene expression was profiled by Real-Time PCR. Anemia was assessed by determination of blood hemoglobin and serum, spleen and liver iron levels.

PG-PS-immunized RA rats = experiment: PG-PS rat rheumatoid arthritis (RA) model, 3 or 21 days of treatment (Example 3); assay type: in vivo, Lewis rats
Description: Female Lewis rats were immunized with 15 mg/kg Streptococcal Peptidoglycan-Polysaccharide (PG-PS) administered intraperitoneally (IP) to generate a rat model of rheumatoid arthritis. Rats were used to assess the efficacy of the dual JAK1/2 and ACVR1 inhibitor momelotinib (MMB) in vivo. Two weeks following rheumatoid arthritis induction by immunization with PG-PS, rats were treated with daily oral doses of MMB (5, 10, 25 mg/kg) or vehicle for 3 or 21 days.
Statistical significance was determined with one-way ANOVA for RA animals with Bonferroni post-hoc tests (N=5-10 per group, * p < 0.05, ** p < 0.01).
Cytokine gene expression was profiled by Real-Time PCR. For immunophenotyping of blood leukocytes and granulocyte counts were obtained. Anemia was assessed by determination of blood hemoglobin and serum, spleen and liver iron levels.

myelofibrosis patients = myelofibrosis patients treated with MMB; background statement; cited from earlier work
CAIA DBA/1 mice = experiment: Collagen antibody-induced arthritis (CAIA) in DBA/1 mice (Example 2); assay type: in vivo
Text: as §1, with “Vernier's” for “Vernier’s”, “animal's” for “animal’s”, “Inglis” left out, “8:[…],” for “8:R113,”, “[…],” for “erythrema,”, “assignment. In order to evaluate efficacy of MMB treatment in a second arthritic animal model, arthritis was induced in DBA/1 mice by intravenous injection of collagen antibody cocktail on day 0 followed by intraperitoneal injection of lipopolysaccharide (LPS) on day 3. […] Comparator controls dexamethasone (1 mg/kg) or the TNF-α inhibitor, etanercept (10 mg/kg) were administered daily by intraperitoneal injection beginning on day 0.” for “assignment.”

[2] = all tested doses (5, 10, 25 mg/kg), vs vehicle in PG-PS animals
[3] = beginning at the lowest tested dose (5 mg/kg)
[4] = daily oral, 3 weeks, flow cytometry
[5] = daily oral, 3 weeks, hind limb ankle joints, flow cytometry
[6] = 21 days of treatment, compared to healthy and RA rats
[7] = 21 days of treatment, flow cytometry
[8] = beginning on day 5, vs vehicle, MMB 50 mg/kg daily or 30 mg/kg twice daily oral, etanercept 10 mg/kg daily IP

## N#CCNC(=O)c1ccc(-c2ccnc(Nc3ccc(N4CCOCC4)cc3)n2)cc1 [MMB, N-(cyanomethyl)-4-(2-(4-morpholinophenylamino)pyrimidin-4-yl)benzamide]
[1]
  inhibition of ACVR1: potent inhibition
Rat model
  anemia: correct anemia
CAIA BALB/C mice; CAIA model, BALB/C mice
  rheumatoid arthritis scoring versus the TNF-α inhibitor etanercept: non-inferiority
CAIA BALB/C mice
  mean rear paw rheumatoid arthritis score: significant reduction
  mean rear paw thickness: significant reduction
  mean total animal rheumatoid arthritis score: significant reduction
CAIA BALB/C mice; murine CAIA RA model
  anti-arthritic effectiveness compared with etanercept: at least equally effective
PG-PS-immunized rats; 25 mg/kg
  joint swelling: complete remission
PG-PS-immunized rats; 25 mg/kg for 3 weeks, flow cytometry
  splenic granulocytes (percentage of splenic CD45+ leukocytes): significant reduction
PG-PS-immunized rats; 10 and 25 mg/kg daily oral, 3 weeks, caliper on last day of treatment, vs vehicle
  mean sum diameter of hind limb joints: significant reduction
PG-PS-immunized rats; [2]
  reduction of inflammatory granulocyte infiltration in synovial tissue: more than 60%
  reduction of macrophage infiltration in synovial tissue: more than 60%
PG-PS-immunized rats; [3]
  arthritogenic Th17 cell differentiation: effectively decreased
  overall CD4+ T cells in the synovia: effectively decreased
PG-PS-immunized rats; daily oral, 3 weeks, H&E sections at 10 mg/kg
  swelling and cartilage destruction in arthritic hind limb joints: substantially inhibits
PG-PS-immunized rats; [4]
  granulocytes in synovial tissue of hind limb ankle joint pairs: significantly reduced
  inflammatory CD11b/c+ macrophages in synovial tissue: significantly reduced
  monocytes in synovial tissue: significantly reduced
  splenic Th1 cells: reduced
  splenic Th17 cells: significant reduction
  splenic Treg cells: not significantly altered
PG-PS-immunized rats; [5]
  synovial CD4+ T cells: significant reductions
  synovial CD8+ T cells: significant reductions
PG-PS-immunized rats; lowest dose tested, 5 mg/kg
  CD4+ T cells in the arthritic ankle synovia: Reduction
PG-PS-immunized rats; rats
  RA-associated anemia: substantial improvement
  circulating hepcidin levels: reduced
  systemic iron: mobilized
PG-PS-immunized RA rats; 3 days of treatment
  blood granulocyte counts: significantly decreases
  blood leukocyte counts: significantly decreases
PG-PS-immunized RA rats; 3 days of treatment, Real-Time PCR
  spleen and liver cytokine expression: significantly decreases
PG-PS-immunized RA rats; 21 days of treatment, H&E-stained hind limb joint sections
  cartilage damage: alleviates
PG-PS-immunized RA rats; [6]
  anemia: corrects
  hepcidin: decreases
PG-PS-immunized RA rats; 21 days of treatment, figure shows 10 mg/kg
  hind limb joint swelling: reduces
PG-PS-immunized RA rats; [7]
  CD4+ T cell infiltration in hind-limb synovial tissue: significantly reduces
  CD8+ T cell infiltration in hind-limb synovial tissue: significantly reduces
  differentiation of splenic Th17 cells: inhibits
  infiltration of macrophages in hind limb synovia: reduces
  infiltration of neutrophils in hind limb synovia: reduces
  regulatory Treg cells: without affecting
  splenic Th1 cells: without affecting
PG-PS-immunized RA rats; rat PG-PS model
  iron availability: improves
Myelofibrosis patients
  anemia benefit: clinically reproduced
CAIA DBA/1 mice; 20 mg/kg daily oral, days 7 and 12, vs vehicle
  mean rear paw thickness: reduction
CAIA DBA/1 mice; CAIA model, DBA/1 mice
  arthritis scoring versus the TNF-α inhibitor etanercept: non-inferiority
CAIA DBA/1 mice; [8]
  mean rear paw arthritis score: significant reduction
  mean rear paw thickness: significant reduction
  mean total arthritis score: significant reduction

## etanercept [reference compound]
CAIA BALB/C mice
  mean rear paw rheumatoid arthritis score: significant reduction
  mean rear paw thickness: significant reduction
  mean total animal rheumatoid arthritis score: significant reduction
CAIA DBA/1 mice; [8]
  mean rear paw arthritis score: significant reduction
  mean rear paw thickness: significant reduction
  mean total arthritis score: significant reduction
